Results: patent US20050186568A1, “Kinases and phosphatases” (priority 2001, published 2005)

What was measured:
SEQ ID NO:67 = assay: Microarray analysis of SEQ ID NO:67 expression in steroid-treated C3A cells; format: cell-based, human; conditions: early confluent C3A cells treated for 1, 3, or 6 hours
Description: (§1) Total RNA is isolated from tissue samples using the guanidinium thiocyanate method and poly(A)^+ RNA is purified using the oligo-(dT) cellulose method. Each poly(A)^+ RNA sample is reverse transcribed using MMLV reverse-transcriptase, 0.05 pg/μl oligo-(dT) primer (21 mer), 1× first strand buffer, 0.03 units/μl RNase inhibitor, 500 μM dATP, 500 μM dGTP, 500 μM dTTP, 40 μM dCTWP, 40 μM dCTP-Cy3 (BDS) or dCTP-Cy5 (Amersham Biosciences). The reverse transcription reaction is performed in a […] containing 200 ng poly(A)^+ RNA with GEMBRIGHT kits (Incyte Genomics). Specific control poly(A)^+ RNAs are synthesized by in vitro transcription from non-coding yeast genomic DNA. After incubation at 37° C. for 2 hr, each reaction sample (one with Cy3 and another with Cy5 labeling) is treated with […] of 0.5M sodium hydroxide and incubated for 20 minutes at 85° C. to the stop the reaction and degrade the RNA. Samples are purified using two successive CHROMA SPIN 30 gel filtration spin columns (Clontech, Palo Alto Calif.) and after combining, both reaction samples are ethanol precipitated using […] of 100% ethanol. The sample is then dried to completion using a SpeedVAC (Savant Instruments Inc., Holbrook N.Y.) and resuspended in 14 μl 5×SSC/0.2% SDS.
Sequences of the present invention are used to generate array elements. Each array element is amplified from bacterial cells containing vectors with cloned cDNA inserts. PCR amplification uses primers complementary to the vector sequences flanking the cDNA insert. Array elements are amplified in thirty cycles of PCR from an initial quantity of 1-2 ng to a final quantity greater than 5 μg. Amplified array elements are then purified using SEPHACRYL-400 (Amersham Biosciences).
Purified array elements are immobilized on polymer-coated glass slides. Glass microscope slides (Corning) are cleaned by ultrasound in 0.1% SDS and acetone, with extensive distilled water washes between and after treatments. Glass slides are etched in 4% hydrofluoric acid (VWR Scientific Products Corporation (VWR), West Chester Pa.), washed extensively in distilled water, and coated with 0.05% aminopropyl silane (Sigma) in 95% ethanol. Coated slides are cured in a 110° C. oven.
Array elements are applied to the coated glass substrate using a procedure described in U.S. Pat. No. 5,807,522, incorporated herein by reference. 1 μl of the array element DNA, at an average concentration of 100 ng/μl, is loaded into the open capillary printing element by a high-speed robotic apparatus. The apparatus then deposits about 5 nl of array element sample per slide.
Microarrays are UV-crosslinked using a STRATALINKER UV-crosslinker (Stratagene). […]

[1] = relative to progesterone; cited from earlier work
CKI-epsilon = CKI-epsilon (Homo sapiens, UniProt P49674); conditions: recombinant expression; cited from earlier work
SEQ ID NO:57 = assay: Microarray analysis of SEQ ID NO:57 expression in steroid-treated C3A cells; format: cell-based, human; conditions: early confluent C3A cells, 1, 3 and 6 hours (all time points), compared to untreated C3A cells
Description: as §1, with “The sample is then dried to completion using a SpeedVAC (Savant Instruments Inc., Holbrook N.Y.) and resuspended in 14 μl 5×SSC/0.2% SDS.” left out
Sequences of the present invention are used to generate array elements. […] Array elements are amplified in thirty cycles of PCR from an initial quantity of 1-2 ng to a final quantity greater than 5 μg. […]

CKI-epsilon, sequence (P49674 whole entry): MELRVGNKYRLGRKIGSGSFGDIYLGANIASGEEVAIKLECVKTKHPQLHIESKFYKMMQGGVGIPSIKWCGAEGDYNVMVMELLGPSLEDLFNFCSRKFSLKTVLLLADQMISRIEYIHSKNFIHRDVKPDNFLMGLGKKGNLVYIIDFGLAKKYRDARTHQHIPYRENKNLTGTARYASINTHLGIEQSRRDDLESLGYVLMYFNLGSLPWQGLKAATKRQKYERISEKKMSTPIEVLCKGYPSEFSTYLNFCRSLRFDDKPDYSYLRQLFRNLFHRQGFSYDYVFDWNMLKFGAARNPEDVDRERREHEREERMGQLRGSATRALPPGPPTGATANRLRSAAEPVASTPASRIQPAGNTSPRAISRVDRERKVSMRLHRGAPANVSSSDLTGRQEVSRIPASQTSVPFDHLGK

Compound | expression of SEQ ID NO:67 (SEQ ID NO:67) | further results
6α-methyl-17-hydroxyprogesterone [medroxyprogesterone] | at least a two-fold decrease | pharmacological activity greater than progesterone [1]: about 15 times
NCCNS(=O)(=O)c1ccc(Cl)c2ccncc12 [CKI-7] | – | inhibition of CKI-epsilon (CKI-epsilon): inhibited
C[C@H]1C[C@H]2[C@@H]3CCC4=CC(=O)C=C[C@]4(C)[C@@]3(Cl)[C@@H](O)C[C@]2(C)[C@@]1(O)C(=O)CO [beclomethasone] | at least a two-fold decrease | expression of SEQ ID NO:57 (SEQ ID NO:57; beclamethasone at 10 μM): increased by at least two-fold
C[C@]12C=CC(=O)C=C1CC[C@@H]1[C@@H]2C(=O)C[C@@]2(C)[C@H]1CC[C@]2(O)C(=O)CO [prednisone] | at least a two-fold decrease | –
CC(=O)[C@H]1CC[C@H]2[C@@H]3CCC4=CC(=O)CC[C@]4(C)[C@H]3CC[C@]12C [progesterone] | at least a two-fold decrease | expression of SEQ ID NO:57 (SEQ ID NO:57; progesterone at 100 μM): increased by at least two-fold
